Experimental data taken from patent US10072006B2 (MUTABILIS, priority 2015, dated 2018).
pIC50: −log10 of the molar value.

What was measured:
[1] = molecular target: T1, OXA-48 (Klebsiella pneumoniae, UniProt Q6XEC0); experiment: β-lactamase inhibitory activity, determination of IC50 (nitrocefin hydrolysis); format: biochemical
T1 construct: made in house; host or cells: E. coli

[2] = molecular target: T2, SHV-1 (Klebsiella pneumoniae, UniProt P0AD64); experiment: as above; format: biochemical
T2 construct: made in house; host or cells: E. coli
T2 sequence (P0AD64 22-286): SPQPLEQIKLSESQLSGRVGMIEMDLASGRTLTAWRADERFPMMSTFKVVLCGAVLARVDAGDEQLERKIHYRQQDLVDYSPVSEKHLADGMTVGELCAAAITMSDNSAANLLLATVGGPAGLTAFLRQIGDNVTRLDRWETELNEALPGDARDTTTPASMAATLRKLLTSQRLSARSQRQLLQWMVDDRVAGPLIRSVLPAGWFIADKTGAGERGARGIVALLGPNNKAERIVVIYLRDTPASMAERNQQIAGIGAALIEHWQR

[3] = molecular target: T3, CTX-M-15 (Escherichia coli, UniProt Q9EXV5); experiment: as above; format: biochemical
T3 construct: made in house; host or cells: E. coli
T3 sequence (Q9EXV5 entry or part of it): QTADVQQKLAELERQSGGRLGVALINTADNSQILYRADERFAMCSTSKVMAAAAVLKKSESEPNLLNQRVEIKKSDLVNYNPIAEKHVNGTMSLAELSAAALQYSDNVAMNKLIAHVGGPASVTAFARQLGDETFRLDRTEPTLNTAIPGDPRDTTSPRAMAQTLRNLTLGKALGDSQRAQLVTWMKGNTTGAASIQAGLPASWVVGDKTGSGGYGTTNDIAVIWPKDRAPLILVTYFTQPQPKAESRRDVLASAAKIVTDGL

[4] = molecular target: T4, OXA-11 (Pseudomonas aeruginosa, UniProt Q06778); experiment: as above; format: biochemical
T4 construct: made in house; host or cells: E. coli
T4 sequence (Q06778 21-266): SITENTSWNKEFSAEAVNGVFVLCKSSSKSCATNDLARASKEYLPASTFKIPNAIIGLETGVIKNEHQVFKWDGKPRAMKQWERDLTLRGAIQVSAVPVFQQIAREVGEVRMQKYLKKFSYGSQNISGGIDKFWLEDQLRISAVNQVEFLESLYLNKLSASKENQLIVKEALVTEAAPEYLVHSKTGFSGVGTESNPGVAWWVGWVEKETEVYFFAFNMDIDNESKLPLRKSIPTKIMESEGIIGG

[5] = molecular target: T5, OXA-1 (Escherichia coli, UniProt P13661); experiment: as above; format: biochemical
T5 construct: made in house; host or cells: E. coli
T5 sequence (P13661 26-276): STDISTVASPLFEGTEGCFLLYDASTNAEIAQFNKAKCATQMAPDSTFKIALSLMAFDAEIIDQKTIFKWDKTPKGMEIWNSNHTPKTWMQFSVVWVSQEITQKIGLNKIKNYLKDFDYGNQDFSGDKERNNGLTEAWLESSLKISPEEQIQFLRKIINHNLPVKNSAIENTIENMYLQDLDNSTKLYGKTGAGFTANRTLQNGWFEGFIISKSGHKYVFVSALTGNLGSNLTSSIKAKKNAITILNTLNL

[6] = test system: E. cloacae UFR85 (TEM-1, CTX-M-15, derepressed ampC); experiment: microbe, parasite or virus in culture; format: cell-based
Method: […] […] Microplates were incubated for 16-20 h at 35° C. in ambient air. The MIC of the compounds was defined as the lowest concentration of said compounds that prevented bacterial growth as read by visual inspection.

[7] = test system: K. pneumoniae 160143 (TEM-1, SHV-1, CTX-M-15, KPC-2, OXA-1); experiment: microbe, parasite or virus in culture; format: cell-based
Method: (§1) Briefly, compounds alone according to the invention were prepared in DMSO and spotted (2 μL each) on sterile polystyrene plates (Corning, 3788). […] Microplates were incubated for 16-20 h at 35° C. in ambient air. The MIC of the compounds was defined as the lowest concentration of said compounds that prevented bacterial growth as read by visual inspection.

[8] = test system: E. cloacae 260508 (TEM-1, CTX-M-15); experiment: microbe, parasite or virus in culture; format: cell-based
Method: as §1

[9] = test system: E. coli 190317 (TEM-1, SHV-12, CTX-M-15, OXA-1); experiment: microbe, parasite or virus in culture; format: cell-based
Method: as §1

[10] = test system: P. aeruginosa UFR90 (Derepressed ampC, OprD-); experiment: MIC of compounds and synergy with ceftazidime (broth microdilution); format: cell-based
Method: as §1

[11] = test system: P. aeruginosa UFR93 (Derepressed ampC, OprD-, MexAB+, MexXY+); experiment: as above; format: cell-based
Method: as §1

[12] = test system: P. aeruginosa UFR92 (Derepressed ampC, OprD-); experiment: as above; format: cell-based
Method: as §1

[13] = test system: E. cloacae UFR70 (TEM-1, CTX-M-15, CMY-2, OXA-1, Porin loss); experiment: as above; format: cell-based
Method: as §1

[14] = molecular target: T6, OXA-15 (Pseudomonas aeruginosa, UniProt Q51574); experiment: β-lactamase inhibitory activity, determination of IC50 (nitrocefin hydrolysis); format: biochemical
T6 construct: made in house; host or cells: E. coli
T6 sequence (Q51574 22-275): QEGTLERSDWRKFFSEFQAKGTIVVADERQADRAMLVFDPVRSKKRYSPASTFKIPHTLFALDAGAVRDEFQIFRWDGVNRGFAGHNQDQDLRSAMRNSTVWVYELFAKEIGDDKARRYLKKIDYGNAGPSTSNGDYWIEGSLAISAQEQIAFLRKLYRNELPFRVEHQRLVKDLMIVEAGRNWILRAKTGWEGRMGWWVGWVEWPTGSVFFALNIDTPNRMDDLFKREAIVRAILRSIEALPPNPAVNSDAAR

[15] = test system: K. pneumoniae UFR68 (TEM-1, SHV-11, CTX-M-15, KPC-3); experiment: microbe, parasite or virus in culture; format: cell-based
[16] = test system: K. oxytoca UFR21 (TEM-1, CTX-M-15, OXA-48); experiment: microbe, parasite or virus in culture; format: cell-based
[17] = test system: K. pneumoniae 200047 (TEM-1, SHV-32, CTX-M-15, OXA-1); experiment: microbe, parasite or virus in culture; format: cell-based
[18] = molecular target: T7, KPC-2 (Klebsiella pneumoniae, UniProt Q9F663); experiment: β-lactamase inhibitory activity, determination of IC50 (nitrocefin hydrolysis); format: biochemical
T7 construct: made in house; host or cells: E. coli
T7 sequence (Q9F663 25-293 limits assumed): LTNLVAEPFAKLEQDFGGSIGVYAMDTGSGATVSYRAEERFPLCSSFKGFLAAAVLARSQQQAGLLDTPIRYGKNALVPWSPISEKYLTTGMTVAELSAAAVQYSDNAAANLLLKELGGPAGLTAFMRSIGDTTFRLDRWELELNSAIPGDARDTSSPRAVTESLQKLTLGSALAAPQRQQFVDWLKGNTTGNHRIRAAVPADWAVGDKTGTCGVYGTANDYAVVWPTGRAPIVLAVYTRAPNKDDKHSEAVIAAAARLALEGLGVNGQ

[19] = Enterobacter cloacae, 18 h, read-out: MIC compounds of the invention alone
[20] = Klebsiella pneumoniae, 18 h, read-out: MIC compounds of the invention alone
[21] = Pseudomonas aeruginosa, 18 h, read-out: MIC compounds of the invention alone

T1 sequence (Q6XEC0 23-265 limits assumed): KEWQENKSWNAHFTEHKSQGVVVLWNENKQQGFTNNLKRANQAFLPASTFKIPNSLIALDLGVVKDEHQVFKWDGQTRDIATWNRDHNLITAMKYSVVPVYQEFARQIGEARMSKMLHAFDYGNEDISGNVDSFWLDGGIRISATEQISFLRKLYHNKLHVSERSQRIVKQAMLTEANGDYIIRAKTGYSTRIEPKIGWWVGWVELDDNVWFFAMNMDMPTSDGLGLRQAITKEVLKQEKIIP

For `NC[C@H]1C=C(c2cnco2)[C@@H]2CN1C(=O)N2OS(=O)(=O)[O-].O=C(O)C(F)(F)F.[Na+]` (relative stereo) [Example 1, Sodium and 2,2,2-trifluoroacetate [trans-2-(azaniumylmethyl)-4-oxazol-5-yl-7-oxo-1,6-diazabicyclo[3.2.1]oct-3-en-6-yl] sulfate], the pIC50 [1] was 9.29, the pIC50 [2] was 8.89 and the pIC50 [3] was 8.27. For the same molecule, the pIC50 [4] was 8.39, the pIC50 [5] was 7.10 and the MIC [6, 19] was over 32 µg/mL. The “MIC, combination of CAZ and compounds of the invention” value (from here on “MIC, combination”) ([6]; MIC of ceftazidime with compound fixed at 4 μg/mL, strain UFR85 (E. cloacae)) was 2 µg/mL, the MIC [7, 20] was over 32 µg/mL and the “MIC, combination” value ([7]; MIC of ceftazidime with compound fixed at 4 μg/mL, strain 160143 (K. pneumoniae)) was 1 µg/mL. The MIC ([8]; Enterobacter cloacae, read-out: MIC compounds of the invention alone) was 0.063 µg/mL, the “MIC, combination” value ([8]; MIC of ceftazidime with compound fixed at 4 μg/mL, strain 260508 (E. cloacae)) was at most 0.125 µg/mL and the MIC ([9]; Escherichia coli, 18 h, read-out: MIC compounds of the invention alone) was 0.031 µg/mL. The “MIC, combination” value ([9]; MIC of ceftazidime with compound fixed at 4 μg/mL, strain 190317 (E. coli)) was under 0.25 µg/mL, the “MIC, combination” value ([10]; MIC of ceftazidime with compound fixed at 4 μg/mL, strain UFR90 (P. aeruginosa)) was under 0.25 µg/mL and the MIC [10, 21] was 0.5 µg/mL. For the same molecule, the “MIC, combination” value ([11]; MIC of ceftazidime with compound fixed at 4 μg/mL, strain UFR93 (P. aeruginosa)) was under 0.25 µg/mL, the MIC [11, 21] was 8 µg/mL and the “MIC, combination” value ([12]; MIC of ceftazidime with compound fixed at 4 μg/mL, strain UFR92 (P. aeruginosa)) was under 0.25 µg/mL. The MIC [12, 21] was 2 µg/mL, the MIC [13, 19] was 16 µg/mL and the “MIC, combination” value ([13]; MIC of ceftazidime with compound fixed at 4 μg/mL, strain UFR70 (E. cloacae)) was 1 µg/mL. The pIC50 [14] was 9.19, the MIC [15, 20] was over 32 µg/mL and the “MIC, combination” value ([15]; MIC of ceftazidime with compound fixed at 4 μg/mL, strain UFR68 (K. pneumoniae)) was 1 µg/mL. For the same molecule, the MIC ([16]; Klebsiella oxytoca, 18 h, read-out: MIC compounds of the invention alone) was over 32 µg/mL, the “MIC, combination” value ([16]; MIC of ceftazidime with compound fixed at 4 μg/mL, strain UFR21 (K. oxytoca)) was 0.5 µg/mL and the MIC [17, 20] was over 32 µg/mL. For the same molecule, the “MIC, combination” value ([17]; MIC of ceftazidime with compound fixed at 4 μg/mL, strain 200047 (K. pneumoniae)) was 0.5 µg/mL and the pIC50 [18] was 8.11.
